# Measured values as given in PubChem BioAssay AID1919004 (Molecular Pharmacology Branch, DTP, NCI, 2023).
# System: 883617-216-R-J1-PDC complex spheroids, growth, % test/control
# Assay: Anticancer human tumor 883617-216-R-J1-PDC patient-derived bladder carcinoma cell line growth inhibition [AhR]
# Settings: for IC50: curve of first compound; for viability, T/C: stronger effect = lower value
# Outline: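 Agents were dosed in half-log steps down from roughly clinical Cmax, or from 10 microM where Cmax was unknown, alone and with AhR antagonists. Read-out: percent test/control growth of tumor spheroids containing HUVEC and MSC stromal cells.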
# [1] = second compound 0.1 µM, first compound 0.0316 µM
# [2] = second compound 0.1 µM, first compound 0.1 µM
# [3] = second compound 0.1 µM, first compound 0.316 µM
# [4] = second compound 0.1 µM, first compound 1 µM
# [5] = second compound 0.1 µM, first compound 3.16 µM
# [6] = second compound 0.1 µM, first compound 10 µM
# [7] = second compound 0.316 µM, first compound 0.0316 µM
# [8] = second compound 0.316 µM, first compound 0.1 µM
# [9] = second compound 0.316 µM, first compound 0.316 µM
# [10] = second compound 0.316 µM, first compound 1 µM
# [11] = second compound 0.316 µM, first compound 3.16 µM
# [12] = second compound 0.316 µM, first compound 10 µM
# [13] = second compound 1 µM, first compound 0.0316 µM
# [14] = second compound 1 µM, first compound 0.1 µM
# [15] = second compound 1 µM, first compound 0.316 µM
# [16] = second compound 1 µM, first compound 1 µM
# [17] = second compound 1 µM, first compound 3.16 µM
# [18] = second compound 1 µM, first compound 10 µM
# [19] = second compound 3.16 µM, first compound 0.0316 µM
# [20] = second compound 3.16 µM, first compound 0.1 µM
# [21] = second compound 3.16 µM, first compound 0.316 µM
# [22] = second compound 3.16 µM, first compound 1 µM
# [23] = second compound 3.16 µM, first compound 3.16 µM
# [24] = second compound 3.16 µM, first compound 10 µM
# [25] = second compound 10 µM, first compound 0.0316 µM
# [26] = second compound 10 µM, first compound 0.1 µM
# [27] = second compound 10 µM, first compound 0.316 µM
# [28] = second compound 10 µM, first compound 1 µM
# [29] = second compound 10 µM, first compound 3.16 µM
# [30] = second compound 10 µM, first compound 10 µM
# 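Note: exposure lasted 7 days after dosing on day 3 of spheroid growth.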
smiles,measurement,setting,value
CCc1c2c(nc3ccc(O)cc13)-c1cc3c(c(=O)n1C2)COC(=O)[C@]3(O)CC + Cc1ccccc1N=Nc1ccc(NC(=O)c2ccnn2C)c(C)c1,IC50,second compound 0.1 µM,185 nM
same,IC50,second compound 0.316 µM,163 nM
same,IC50,second compound 1 µM,121 nM
same,IC50,second compound 3.16 µM,109 nM
same,IC50,second compound 10 µM,199 nM
same,"viability, T/C","second compound 0.1 µM, first compound 0.000949 µM",92%
same,"viability, T/C","second compound 0.1 µM, first compound 0.003 µM",84%
same,"viability, T/C","second compound 0.1 µM, first compound 0.00949 µM",72.7%
same,"viability, T/C","second compound 0.1 µM, first compound 0.03 µM",70.2%
same,"viability, T/C","second compound 0.1 µM, first compound 0.0949 µM",60.3%
same,"viability, T/C","second compound 0.1 µM, first compound 0.3 µM",42.1%
same,"viability, T/C","second compound 0.316 µM, first compound 0.000949 µM",80.8%
same,"viability, T/C","second compound 0.316 µM, first compound 0.003 µM",82.2%
same,"viability, T/C","second compound 0.316 µM, first compound 0.00949 µM",77.6%
same,"viability, T/C","second compound 0.316 µM, first compound 0.03 µM",66.8%
same,"viability, T/C","second compound 0.316 µM, first compound 0.0949 µM",56.5%
same,"viability, T/C","second compound 0.316 µM, first compound 0.3 µM",43.6%
same,"viability, T/C","second compound 1 µM, first compound 0.000949 µM",80.9%
same,"viability, T/C","second compound 1 µM, first compound 0.003 µM",83.8%
same,"viability, T/C","second compound 1 µM, first compound 0.00949 µM",79.1%
same,"viability, T/C","second compound 1 µM, first compound 0.03 µM",61.6%
same,"viability, T/C","second compound 1 µM, first compound 0.0949 µM",54.4%
same,"viability, T/C","second compound 1 µM, first compound 0.3 µM",44%
same,"viability, T/C","second compound 3.16 µM, first compound 0.000949 µM",81.7%
same,"viability, T/C","second compound 3.16 µM, first compound 0.003 µM",84%
same,"viability, T/C","second compound 3.16 µM, first compound 0.00949 µM",70.7%
same,"viability, T/C","second compound 3.16 µM, first compound 0.03 µM",64.7%
same,"viability, T/C","second compound 3.16 µM, first compound 0.0949 µM",51.5%
same,"viability, T/C","second compound 3.16 µM, first compound 0.3 µM",39.4%
same,"viability, T/C","second compound 10 µM, first compound 0.000949 µM",78.8%
same,"viability, T/C","second compound 10 µM, first compound 0.003 µM",77.2%
same,"viability, T/C","second compound 10 µM, first compound 0.00949 µM",72.6%
same,"viability, T/C","second compound 10 µM, first compound 0.03 µM",74.8%
same,"viability, T/C","second compound 10 µM, first compound 0.0949 µM",56.8%
same,"viability, T/C","second compound 10 µM, first compound 0.3 µM",44.9%
Nc1ccccc1NC(=O)c1ccc(CNC(=O)OCc2cccnc2)cc1 + Cc1ccccc1N=Nc1ccc(NC(=O)c2ccnn2C)c(C)c1,IC50,second compound 0.1 µM,1060 nM
same,IC50,second compound 0.316 µM,1080 nM
same,IC50,second compound 1 µM,901 nM
same,IC50,second compound 3.16 µM,818 nM
same,IC50,second compound 10 µM,1140 nM
same,"viability, T/C",[1],102%
same,"viability, T/C",[2],103%
same,"viability, T/C",[3],77.5%
same,"viability, T/C",[4],51%
same,"viability, T/C",[5],23.3%
same,"viability, T/C",[6],1.52%
same,"viability, T/C",[7],85.7%
same,"viability, T/C",[8],95%
same,"viability, T/C",[9],86%
same,"viability, T/C",[10],49.5%
same,"viability, T/C",[11],18.6%
same,"viability, T/C",[12],1.3%
same,"viability, T/C",[13],87.6%
same,"viability, T/C",[14],88.5%
same,"viability, T/C",[15],76.7%
same,"viability, T/C",[16],44.8%
same,"viability, T/C",[17],20.1%
same,"viability, T/C",[18],1.53%
same,"viability, T/C",[19],80.2%
same,"viability, T/C",[20],84.7%
same,"viability, T/C",[21],70.6%
same,"viability, T/C",[22],44.8%
same,"viability, T/C",[23],16.6%
same,"viability, T/C",[24],1.32%
same,"viability, T/C",[25],79.5%
same,"viability, T/C",[26],76.6%
same,"viability, T/C",[27],72.4%
same,"viability, T/C",[28],51.9%
same,"viability, T/C",[29],25.4%
same,"viability, T/C",[30],2.23%
Nc1ccn(C2OC(CO)C(O)C2(F)F)c(=O)n1 (stereo not given) + Cc1ccccc1N=Nc1ccc(NC(=O)c2ccnn2C)c(C)c1,IC50,second compound 0.1 µM,< 31.6 nM
same,IC50,second compound 0.316 µM,< 31.6 nM
same,IC50,second compound 1 µM,< 31.6 nM
same,IC50,second compound 3.16 µM,< 31.6 nM
same,IC50,second compound 10 µM,< 31.6 nM
same,"viability, T/C",[1],27.8%
same,"viability, T/C",[2],26.8%
same,"viability, T/C",[3],35.4%
same,"viability, T/C",[4],32.4%
same,"viability, T/C",[5],30.2%
same,"viability, T/C",[6],32.2%
same,"viability, T/C",[7],25.1%
same,"viability, T/C",[8],26.1%
same,"viability, T/C",[9],32.5%
same,"viability, T/C",[10],33.5%
same,"viability, T/C",[11],35.2%
same,"viability, T/C",[12],37.5%
same,"viability, T/C",[13],28.6%
same,"viability, T/C",[14],22.8%
same,"viability, T/C",[15],31.5%
same,"viability, T/C",[16],36%
same,"viability, T/C",[17],34.2%
same,"viability, T/C",[18],31.7%
same,"viability, T/C",[19],26.1%
same,"viability, T/C",[20],22.3%
same,"viability, T/C",[21],31%
same,"viability, T/C",[22],31.3%
same,"viability, T/C",[23],37.3%
same,"viability, T/C",[24],32.4%
same,"viability, T/C",[25],36.3%
same,"viability, T/C",[26],27.8%
same,"viability, T/C",[27],29.4%
same,"viability, T/C",[28],34.5%
same,"viability, T/C",[29],31.1%
same,"viability, T/C",[30],32.4%
O=C(c1cc(Cc2n[nH]c(=O)c3ccccc23)ccc1F)N1CCN(C(=O)C2CC2)CC1 + Cc1ccccc1N=Nc1ccc(NC(=O)c2ccnn2C)c(C)c1,IC50,second compound 0.1 µM,> 10000 nM
same,IC50,second compound 0.316 µM,> 10000 nM
same,IC50,second compound 1 µM,> 10000 nM
same,IC50,second compound 3.16 µM,> 10000 nM
same,IC50,second compound 10 µM,> 10000 nM
same,"viability, T/C",[1],88.7%
same,"viability, T/C",[2],90.9%
same,"viability, T/C",[3],98.7%
same,"viability, T/C",[4],84.3%
same,"viability, T/C",[5],84.1%
same,"viability, T/C",[6],81%
same,"viability, T/C",[7],84.7%
same,"viability, T/C",[8],82.1%
same,"viability, T/C",[9],76.5%
same,"viability, T/C",[10],86.5%
same,"viability, T/C",[11],74.8%
same,"viability, T/C",[12],85.4%
same,"viability, T/C",[13],89%
same,"viability, T/C",[14],83.2%
same,"viability, T/C",[15],87.2%
same,"viability, T/C",[16],80.7%
same,"viability, T/C",[17],80.7%
same,"viability, T/C",[18],71%
same,"viability, T/C",[19],82.8%
same,"viability, T/C",[20],85.6%
same,"viability, T/C",[21],86.8%
same,"viability, T/C",[22],75.2%
same,"viability, T/C",[23],71.3%
same,"viability, T/C",[24],73.9%
same,"viability, T/C",[25],82.3%
same,"viability, T/C",[26],76.8%
same,"viability, T/C",[27],78.9%
same,"viability, T/C",[28],70.6%
same,"viability, T/C",[29],65.9%
same,"viability, T/C",[30],64.4%
